Experimental data: PubChem BioAssay AID1963972 (Molecular Pharmacology Branch, DTP, NCI, 2024)

Tested on: 945468-187-T-J2-PDC spheroids viability
Experiment: Anticancer human tumor 945468-187-T-J2-PDC patient-derived rectal carcinoma cell line growth inhibition [PI3K]
Conditions: spheroids with HUVEC and MSC; for IC50: curve of first compound; for viability, T/C: stronger effect = lower value; active means viability on the fitted dose curve at most 10% of control; inactive means the rest
Outline: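 Spheroid viability read-out. Co-cultures contained the tumor line plus HUVEC and human MSCs. Each agent was paired with a PI3K inhibitor (inavolisib, alpelisib, duvelisib, copanlisib) across half-log dilutions starting at clinical Cmax, or at 10 microM when Cmax was unknown.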

[1] = second compound 0.00316 µM, first compound 0.0316 µM
[2] = second compound 0.00316 µM, first compound 0.1 µM
[3] = second compound 0.01 µM, first compound 0.0316 µM
[4] = second compound 0.01 µM, first compound 0.1 µM
[5] = second compound 0.0316 µM, first compound 0.0316 µM
[6] = second compound 0.0316 µM, first compound 0.1 µM
[7] = second compound 0.1 µM, first compound 0.0316 µM
[8] = second compound 0.1 µM, first compound 0.1 µM
[9] = second compound 0.316 µM, first compound 0.0316 µM
[10] = second compound 0.316 µM, first compound 0.1 µM
[11] = second compound 1 µM, first compound 0.0316 µM
[12] = second compound 1 µM, first compound 0.1 µM
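Further: spheroids exposed to compounds for seven days before reading.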

CC(C)NCC(C(=O)N1CCN(c2ncnc3c2C(C)CC3O)CC1)c1ccc(Cl)cc1 (centres undefined) + CC(Nc1ccc2c(c1)OCCn1cc(N3C(=O)OCC3C(F)F)nc1-2)C(N)=O
> 10 µM: IC50 (second compound 0.00316 µM) | IC50 (second compound 0.01 µM) | IC50 (second compound 0.0316 µM) | IC50 (second compound 0.1 µM) | IC50 (second compound 0.316 µM) | IC50 (second compound 1 µM)
inactive: viability, T/C [1] 84.4% | viability, T/C [2] 114% | viability, T/C (second compound 0.00316 µM, first compound 0.316 µM) 79.4% | viability, T/C (second compound 0.00316 µM, first compound 1 µM) 86.4% | viability, T/C (second compound 0.00316 µM, first compound 3.16 µM) 104% | viability, T/C (second compound 0.00316 µM, first compound 10 µM) 99.3% | viability, T/C [3] 110% | viability, T/C [4] 92.3% | viability, T/C (second compound 0.01 µM, first compound 0.316 µM) 96.2% | viability, T/C (second compound 0.01 µM, first compound 1 µM) 71.6% | viability, T/C (second compound 0.01 µM, first compound 3.16 µM) 97.7% | viability, T/C (second compound 0.01 µM, first compound 10 µM) 98.9% | viability, T/C [5] 93.6% | viability, T/C [6] 89.5% | viability, T/C (second compound 0.0316 µM, first compound 0.316 µM) 95.2% | viability, T/C (second compound 0.0316 µM, first compound 1 µM) 90.7% | viability, T/C (second compound 0.0316 µM, first compound 3.16 µM) 96.9% | viability, T/C (second compound 0.0316 µM, first compound 10 µM) 92.9% | viability, T/C [7] 121% | viability, T/C [8] 77.1% | viability, T/C (second compound 0.1 µM, first compound 0.316 µM) 82.8% | viability, T/C (second compound 0.1 µM, first compound 1 µM) 81.3% | viability, T/C (second compound 0.1 µM, first compound 3.16 µM) 89.9% | viability, T/C (second compound 0.1 µM, first compound 10 µM) 78.4% | viability, T/C [9] 72.5% | viability, T/C [10] 77.2% | viability, T/C (second compound 0.316 µM, first compound 0.316 µM) 76.2% | viability, T/C (second compound 0.316 µM, first compound 1 µM) 87% | viability, T/C (second compound 0.316 µM, first compound 3.16 µM) 84.2% | viability, T/C (second compound 0.316 µM, first compound 10 µM) 81.9% | viability, T/C [11] 76.5% | viability, T/C [12] 65.3% | viability, T/C (second compound 1 µM, first compound 0.316 µM) 75.6% | viability, T/C (second compound 1 µM, first compound 1 µM) 71.2% | viability, T/C (second compound 1 µM, first compound 3.16 µM) 68.5% | viability, T/C (second compound 1 µM, first compound 10 µM) 59.7%

Cn1ncnc1[C@H]1c2n[nH]c(=O)c3cc(F)cc(c23)N[C@@H]1c1ccc(F)cc1 + CC(Nc1ccc2c(c1)OCCn1cc(N3C(=O)OCC3C(F)F)nc1-2)C(N)=O
inactive: viability, T/C (second compound 0.00316 µM, first compound 0.000316 µM) 103% | viability, T/C (second compound 0.00316 µM, first compound 0.001 µM) 114% | viability, T/C (second compound 0.00316 µM, first compound 0.00316 µM) 105% | viability, T/C (second compound 0.00316 µM, first compound 0.01 µM) 86.6% | viability, T/C [1] 92.6% | viability, T/C [2] 99.7% | viability, T/C (second compound 0.01 µM, first compound 0.000316 µM) 131% | viability, T/C (second compound 0.01 µM, first compound 0.001 µM) 99.1% | viability, T/C (second compound 0.01 µM, first compound 0.00316 µM) 107% | viability, T/C (second compound 0.01 µM, first compound 0.01 µM) 84.5% | viability, T/C [3] 110% | viability, T/C [4] 123% | viability, T/C (second compound 0.0316 µM, first compound 0.000316 µM) 129% | viability, T/C (second compound 0.0316 µM, first compound 0.001 µM) 139% | viability, T/C (second compound 0.0316 µM, first compound 0.00316 µM) 100% | viability, T/C (second compound 0.0316 µM, first compound 0.01 µM) 98.8% | viability, T/C [5] 96.3% | viability, T/C [6] 123% | viability, T/C (second compound 0.1 µM, first compound 0.000316 µM) 87.6% | viability, T/C (second compound 0.1 µM, first compound 0.001 µM) 112% | viability, T/C (second compound 0.1 µM, first compound 0.00316 µM) 96.8% | viability, T/C (second compound 0.1 µM, first compound 0.01 µM) 89.1% | viability, T/C [7] 118% | viability, T/C [8] 102% | viability, T/C (second compound 0.316 µM, first compound 0.000316 µM) 82.3% | viability, T/C (second compound 0.316 µM, first compound 0.001 µM) 103% | viability, T/C (second compound 0.316 µM, first compound 0.00316 µM) 100% | viability, T/C (second compound 0.316 µM, first compound 0.01 µM) 88% | viability, T/C [9] 99.7% | viability, T/C [10] 99.6% | viability, T/C (second compound 1 µM, first compound 0.000316 µM) 77.1% | viability, T/C (second compound 1 µM, first compound 0.001 µM) 84.3% | viability, T/C (second compound 1 µM, first compound 0.00316 µM) 75.9% | viability, T/C (second compound 1 µM, first compound 0.01 µM) 84.9% | viability, T/C [11] 79.2% | viability, T/C [12] 77.2%
> 0.1 µM: IC50 (second compound 0.00316 µM) | IC50 (second compound 0.01 µM) | IC50 (second compound 0.0316 µM) | IC50 (second compound 0.1 µM) | IC50 (second compound 0.316 µM) | IC50 (second compound 1 µM)
